“Also recorded” adds a separate entry of the source. Residues, ends and D or L forms follow the SMILES beside them.
System: patients with at least one eye with dry AMD and GA
Experiment: Phase 2 randomized, placebo-controlled, double-masked trial of elamipretide (NCT03891875)
Format: in vivo, human
Procedure: Study design. In this Phase 2, randomized, placebo-controlled, double-masked, multicenter, safety and efficacy trial (ClinicalTrials.gov identifier NCT03891875), patients with at least one eye with dry AMD and GA were included. Visit 1 (screening visit) was performed no more than 14 days before the baseline visit (visit 2, day 1) (FIG. 1). Eligible patients returned for the baseline visit, at which time they were randomized (interactive response system) in a 2:1 ratio to receive either elamipretide 40 mg or placebo administered with a pen injector delivery system as a single daily self-administered subcutaneous injection. This dose was chosen based on the systemic exposure and safety profiles of elamipretide in an earlier trial (Allingham 2022; Mettu 2022). Patients were treated for 48 weeks, with assessments at day 1 and weeks 4, 8, 12, 24, 36, and 48 (visits 2 to 8) plus a final safety follow-up visit 4 weeks after the last day of study treatment (week 52; visit 9). Patient diaries and vial counts were used and reviewed to verify compliance.
Patients—Key inclusion criteria. The original protocol specified that adults≥55 years of age with one eye with dry AMD and GA were eligible for study entry. However, a subsequent amendment to the protocol limited inclusion to patients with noncentral GA. Noncentral GA and area was determined primarily by fundus autofluorescence (FAF) and all noncentral GA lesions were required to be ≥150 μm from foveal center with preserved outer retinal structural details, as confirmed by the central reading center (BIRC, Boston MA). Noncentral GA was required to be ≥0.05 mm^2 and ≤10.16 mm^2 in size, and reside completely within the FAF 30- or 35-degree image. […] The fellow eye was allowed to have AMD with or without GA, MNV, central GA, or no pathology.
Patients—Key exclusion criteria. Key exclusion criteria for study eye included absence of observable hyper-FAF at the margins of the GA (only for lesions 0.25 mm^2), atrophic retinal disease of causality other than AMD including myopia-related maculopathy and monogenetic macular dystrophies including pattern dystrophy and adult-onset Stargardt disease. Presence or diagnosis of exudative AMD or MNV, presence of retinal vein occlusion or vitreous hemorrhage, history of retinal detachment or macular hole, presence of an epiretinal membrane that causes distortion of the retinal contour, vitreomacular traction, or advanced glaucoma in the study eye were also not allowed.
Study objectives and endpoints. The primary efficacy endpoints were changes from baseline in LL BCVA and in square root converted GA area as measured by OCT. Secondary efficacy endpoints included changes in ellipsoid zone integrity, categorical changes from baseline in LL-BCVA, changes from baseline in LL reading acuity (LLRA), BCVA, and GA area as measured by FAF. Additional predefined endpoints included change in center 1-mm and 2-mm mean EZ-RPE thickness, National Eye Institute Visual Function Questionnaire (VFQ-39) score, RA at standard light, visual function by the Low-Luminance Questionnaire (LLQ). For efficacy endpoints, the unit of analysis was study eye; in cases where both eyes are eligible for analysis, the study eye was the eye with the worse LL BCVA as determined at baseline (right eye was the study eye for equal LL BCVA). Ellipsoid zone integrity was measured as previously described on OCT utilizing a machine learning enhanced multi-layer segmentation platform that provided panmacular assessment of the EZ and RPE location (Sirici, et al., Ophthamol Surg Lasers Imaging Retina, 2022; Itoh, et al, Br J Ophthamol, 2016).
The primary safety objective was to evaluate the safety/tolerability of elamipretide. […]

[1] = LS mean change from baseline to week 48, 40 mg SC once daily

Cc1cc(O)cc(C)c1C[C@H](NC(=O)[C@H](N)CCCNC(=N)N)C(=O)N[C@@H](CCCCN)C(=O)N[C@@H](Cc1ccccc1)C(N)=O [elamipretide, H-D-Arg-2′,6′Dmt-Lys-Phe-NH2] (HELM PEPTIDE1{[dR].[Cc1cc(O)cc(C)c1C[C@H](N[*:1])C(=O)[*:2]].K.F.[am]}$$$$V2.0)
LS mean change from baseline to week 48 for macular percentage of tEZa (EZ-RPE thickness of 0 μm) (40 mg SC once daily, OCT, mITT, placebo 6.47% [0.737], P=0.0034): 3.69% | LS mean change from baseline to week 48 for pEZa (EZ-RPE thickness ≤20 μm) (40 mg SC once daily, OCT, mITT, placebo 7.68% [0.969], P=0.0040): 4.10% | square root of GA area progression as measured by OCT (40 mg SC once daily, week 48, mITT, placebo 0.275, P=0.34): 0.312 mm | patients experiencing a ≥2-line gain (≥10 letter) in LL BCVA (40 mg SC once daily, week 48, mITT, placebo 2.1%, P=0.0404): 14.6% | percentage of patients at week 48 experiencing a >1-line gain (40 mg SC once daily, in words, versus placebo): higher compared to placebo | progression of GA area relative to the baseline boundary of total EZ attenuation (48-week trial, in words): did not progress to the baseline boundary of total EZ attenuation | progression of partial EZ attenuation versus placebo (48 weeks, mITT, in words): reduces partial EZ attenuation | progression of total EZ attenuation versus placebo (48 weeks, mITT, in words): significantly less progression of tEZa; also recorded: reduces total EZ attenuation | growth of partial EZ attenuation area during the trial (48 weeks, placebo arm 34%): 15% | growth of total EZ attenuation area (mm^2) during the trial (48 weeks, placebo arm 48%): 26% | reduction in progression of partial EZ attenuation relative to placebo [1]: 47% | reduction in progression of total EZ attenuation relative to placebo [1]: 43% | least squares (LS) mean change from baseline in LL BCVA (elamipretide 40 mg SC once daily, week 48, mITT, study eye, placebo −4.4, P=0.49): −3.0 letters | Early discontinuation, reason: Withdrawal by subject (elamipretide arm n=117, placebo 3 (5.1)): 20 (17.1) n (%) | Early discontinuation, reason: Adverse event (elamipretide arm n=117, placebo 4 (6.8)): 10 (8.5) n (%) | Subjects leaving study early (elamipretide arm n=117, placebo 8 (13.6)): 34 (29.1) n (%) | GA zonal lesion area, change from baseline at Week 48 (mITT n=76, baseline 2.63, placebo 0.99): 1.15 mm^2 | patients who discontinued the study early (of 117 randomized to elamipretide [29%], placebo n=8): 34 patients | early discontinuation due to adverse events (of 117 randomized to elamipretide, placebo 4): 10 patients | early discontinuation due to withdrawal by subject (of 117 randomized to elamipretide, placebo n=3): 20 patients | tEZa zonal lesion area, change from baseline at Week 48 (post hoc, percent attenuation x total macular area on OCT, mITT n=72, baseline 5.39, placebo 2.23, p = 0.04): 1.39 mm^2 | pEZa zonal lesion area, change from baseline at Week 48 (post hoc, percent attenuation x total macular area on OCT, mITT n=72, baseline 9.03, placebo 2.65, p = 0.01): 1.34 mm^2 | progression of the EZ-GA gap (post-hoc, total randomized population, baseline, 24 and 48 weeks, in words, versus placebo): slower rate of progression; also recorded: reduced progression of EZ-GA gap | treatment effect in LL BCVA versus placebo, subgroup with mean center 1 mm EZ-RPE thickness ≥10-micron (post-hoc, week 48, in words): trended towards a treatment effect | categorical improvement in LL BCVA (≥2-line gain) versus placebo (week 48, mITT, in words): significantly more patients experiencing a ≥2-line gain; also recorded: categorical improvement in LL BCVA

— patent US20250090621A1, “METHODS AND COMPOSITIONS FOR THE TREATMENT OF AGE-RELATED MACULAR DEGENERATION” (Stealth BioTherapeutics Inc., priority 2023, published 2025)
